This note sets out measurements from patent US9163027B2, “Substituted triazolo-pyrimidine compounds for modulating cell proliferation differentiation and survival” (STATegics, Inc., priority 2012, dated 2015).

The structures appear in SMILES notation.

One experiment has as its system PC12 cells. Nature of the experiment: PC12 cell survival under serum deprivation (CellTiter-Glo). The format is cell-based, rat. The following applies: 72 h serum-free; NS = RLU increased <25% at 5 uM. The protocol: Each culture condition was performed in quadruplicate in each experiment and the mean values were calculated. The results represent mean±SEM of relative light unit values when compared to the mean values obtained in the presence of the medium alone. A total of 13 experiments were performed and the statistical significance was analyzed using GraphPad Prism software using ANOVA, followed by paired t-test. The symbol * indicates P-values <0.01.
PC12 cells were cultured in DMEM supplemented with 10% fetal calf serum and 5% horse serum. […] Cell viability was analyzed by CellTiter-Glo® reagent (Promega).
PC12 cells were cultured in DMEM supplemented with 10% fetal calf serum and 5% horse serum. […] Cell survival of the serum-starved cells was analyzed by CellTiter-Glo® reagent luminescence reading.
FIG. 2 illustrates neuroprotective effects of Compounds 1-5 when tested in PC12 cell protection assays. PC12 cells were subjected to serum deprivation as described under FIG. 1.
PC12 cells were cultured in DMEM supplemented with 10% fetal calf serum and 5% horse serum. […] Cell survival of the serum-starved cells was analyzed by CellTiter-Glo® reagent luminescence reading (relative light units, “RLU”). […] “NS” indicates RLU increased <25% when compounds were tested at 5 uM.
Regarding `Cc1cc(C)n2nc(SCCOc3ccc(F)c(Cl)c3)nc2n1` [Example 6], the “PC12 cell proliferation (CellTiter-Glo ®) Concentration at which RLU increased >25% compared to medium control” value is under 5 µM.
In the case of `Cc1cc(C)n2nc(SCCOc3ccncc3)nc2n1` [Example 31, 4-[2-({5,7-dimethyl-[1,2,4]triazolo[1,5-a]pyrimidin-2-yl}sulfanyl)ethoxy]pyridine], the “PC12 cell proliferation (CellTiter-Glo ®) Concentration at which RLU increased >25% compared to medium control” value was “NS (RLU increased <25% when compounds were tested at 5 uM)”.
As to `Cc1cc(C)n2nc(SCCOc3ccc(CCN(C)C)cc3)nc2n1` [Example 32, (2-{4-[2-({5,7-dimethyl-[1,2,4]triazolo[1,5-a]pyrimidin-2-yl}sulfanyl)ethoxy]phenyl}ethyl)-dimethylamine], the “PC12 cell proliferation (CellTiter-Glo ®) Concentration at which RLU increased >25% compared to medium control” value is given as “NS (RLU increased <25% when compounds were tested at 5 uM)”.
On the same count and under the same terms, under `Cc1cc(C)n2nc(SCCOC3CCCCC3)nc2n1` [Example 33, 2-{[2-(cyclohexyloxy)ethyl]sulfanyl}-5,7-dimethyl-[1,2,4]triazolo[1,5-a]pyrimidine] stands “NS (RLU increased <25% when compounds were tested at 5 uM)”.

Staying with this experiment, now noted: Rattus norvegicus, PC-12; 72 h serum-free; NS = RLU increased <25% at 5 uM; read-out: PC12 cell proliferation (CellTiter-Glo ®) Concentration at which RLU increased >25% compared to medium control.
For the molecule `Cc1cc(C)n2nc(SCCOc3ccccc3)nc2n1` [Example 2, 5,7-dimethyl-2-[(2-phenoxyethyl)sulfanyl]-[1,2,4]-triazolo[1,5-a]pyrimidine], the minimal effective concentration was under 5 µM.
Regarding `Cc1cc(C)n2nc(SCCOc3ccc(F)cc3)nc2n1` [Example 3, 2-{[2-(4-fluorophenoxy)ethyl]sulfanyl}-5,7-dimethyl-[1,2,4]triazolo[1,5-a]pyrimidine], the minimal effective concentration is under 5 µM.
On to `Cc1cc(C)n2nc(SCCOc3ccc(Cl)c(F)c3)nc2n1` [Example 4, 2-{[2-(4-chloro-3-fluorophenoxy)ethyl]sulfanyl}-5,7-dimethyl-[1,2,4]triazolo[1,5-a]pyrimidine], for which the minimal effective concentration is under 5 µM.
For the molecule `Cc1cc(C)n2nc(SCCOc3ccc(Cl)c(Cl)c3)nc2n1` [Example 5, 2-{[2-(3,4-dichlorophenoxy)ethyl]sulfanyl}-5,7-dimethyl-[1,2,4]-triazolo[1,5-a]pyrimidine], the minimal effective concentration is under 5 µM.
Consider `Cc1cc(C)n2nc(SCCOc3ccc(F)c(F)c3)nc2n1` [Example 7, 2-{[2-(3,4-difluorophenoxy)ethyl]sulfanyl}-5,7-dimethyl-[1,2,4]triazolo[1,5-a]pyrimidine], for which the minimal effective concentration is under 5 µM.
Regarding `CCc1ccc(OCCSc2nc3nc(C)cc(C)n3n2)cc1` [Example 8, 2-{[2-(4-ethylphenoxy)ethyl]sulfanyl}-5,7-dimethyl-[1,2,4]triazolo[1,5-a]pyrimidine], the minimal effective concentration is under 5 µM.
With `Cc1cc(C)n2nc(SCCN(CCO)c3ccccc3)nc2n1` [Example 9, 2-{[2-({5,7-Dimethyl-[1,2,4]triazolo[1,5-a]pyrimidin-2-yl}sulfanyl)ethyl](phenyl)amino}ethan-1-ol], the minimal effective concentration is under 5 µM.
Take `Cc1cc(C)n2nc(OCCCC3CCCC3)nc2n1` [Example 12, 2-(3-cyclopentylpropoxy)-5,7-dimethyl-[1,2,4]-triazolo[1,5-a]pyrimidine]: the minimal effective concentration was under 5 µM.
On the same count and under the same terms, under `CCc1cc(CC)n2nc(OCCN(CCO)c3ccc(F)cc3)nc2n1` [Example 14, 2-{[2-({5,7-diethyl-[1,2,4]triazolo[1,5-a]pyrimidin-2-yl}oxy)ethyl](4-fluorophenyl)amino}ethan-1-ol] stands under 5 µM.
Turning to `CCc1cc(CC)n2nc(OCCOc3ccc(F)cc3)nc2n1` [Example 15, 5,7-diethyl-2-[2-(4-fluorophenoxy)ethoxy]-[1,2,4]triazolo[1,5-a]pyrimidine], the minimal effective concentration is under 5 µM.
As to `CCc1cc(CC)n2nc(OCCOc3ccc(Cl)cc3)nc2n1` [Example 16, 5,7-diethyl-2-[-2-(4-chlorophenoxy)ethoxy]-[1,2,4]triazolo[1,5-a]pyrimidine], the minimal effective concentration is under 5 µM.
Still for that read-out and setting: under `CCc1cc(CC)n2nc(OCCN(CCO)c3ccccc3)nc2n1` [Example 17, 2-{[2-({5,7-Diethyl-[1,2,4]triazolo[1,5-a]pyrimidin-2-yl}oxy)ethyl](phenyl)amino}ethan-1-ol] stands under 5 µM; under `CCc1cc(CC)n2nc(NCCOc3ccccc3)nc2n1` [Example 18, 5,7-diethyl-N-(2-phenoxyethyl)-[1,2,4]triazolo[1,5-a]pyrimidin-2-amine], under 5 µM; under `Cc1cc(C)n2nc(NCCOc3ccc(Cl)cc3)nc2n1` [Example 19, N-[2-(4-chlorophenoxy)ethyl]-5,7-dimethyl-[1,2,4]triazolo[1,5-a]pyrimidin-2-amine], under 5 µM.
On to `CCc1cc(CC)n2nc(CCCN(CCO)c3ccc(F)cc3)nc2n1` [Example 20, 2-[(3-{5,7-diethyl-[1,2,4]triazolo[1,5-a]pyrimidin-2-yl}propyl)(4-fluorophenyl)amino]ethan-1-ol], for which the minimal effective concentration was under 5 µM.
The same measure, in the same setting: under `CCc1cc(CC)n2nc(CCCN(CCOC(C)=O)c3ccc(F)cc3)nc2n1` [Example 21, 2-[(3-{5,7-diethyl-[1,2,4]triazolo[1,5-a]pyrimidin-2-yl}propyl)(4-fluorophenyl)amino]ethyl acetate] stands under 5 µM; under `Cc1cc(C(F)(F)F)n2nc(CCCOc3ccc(Cl)cc3)nc2n1` [Example 22, 2-[3-(4-chlorophenoxy)propyl]-5-methyl-7-(trifluoromethyl)-[1,2,4]triazolo[1,5-a]pyrimidine], under 5 µM; under `Cc1cc(C(F)(F)F)n2nc(SCCOc3ccc(Cl)cc3)nc2n1` [Example 23, 2-{[2-(4-chlorophenoxy)ethyl]sulfanyl}-5-methyl-7-(trifluoromethyl)-[1,2,4]-triazolo[1,5-a]pyrimidine], under 5 µM.
Regarding `FC(F)(F)c1cc(C(F)(F)F)n2nc(SCCOc3ccc(Cl)cc3)nc2n1` [Example 24, 2-{[2-(4-chlorophenoxy)ethyl]sulfanyl}-5,7-bis(trifluoromethyl)-[1,2,4]-triazolo[1,5-a]pyrimidine], the minimal effective concentration was under 5 µM.
With `Clc1ccc(OCCSc2nc3ncccn3n2)cc1` [Example 25, 2-{[2-(4-chlorophenoxy)ethyl]sulfanyl}-[1,2,4]-triazolo[1,5-a]pyrimidine], the minimal effective concentration is under 5 µM.
On the same count and under the same terms, the figure for `Cc1ccn2nc(SCCOc3ccc(Cl)cc3)nc2n1` [Example 26, 2-{[2-(4-chlorophenoxy)ethyl]sulfanyl}-5-methyl-[1,2,4]triazolo[1,5-a]pyrimidine] is under 5 µM; for `Cc1ccnc2nc(SCCOc3ccc(Cl)cc3)nn12` [Example 27, 2-{[2-(4-chlorophenoxy)ethyl]sulfanyl}-7-methyl-[1,2,4]-triazolo[1,5-a]pyrimidine] it is under 5 µM; for `CC(C)c1cc(C(C)C)n2nc(CCCOc3ccc(F)cc3)nc2n1` [Example 29, 2-[3-(4-fluorophenoxy)propyl]-5,7-bis(propan-2-yl)-[1,2,4]triazolo[1,5-a]pyrimidine] it is under 5 µM.
On the same count and under the same terms, the figure for `Fc1ccc(OCCCc2nc3nc(C(F)F)cc(C(F)F)n3n2)cc1` [Example 30, 5,7-bis(difluoromethyl)-2-[3-(4-fluorophenoxy)propyl]-[1,2,4]triazolo[1,5-a]pyrimidine] is under 5 µM.
